Assay results reported in ChEMBL document CHEMBL1123342 (J Med Chem, 1986).

Each compound was assayed against Pancreatic elastase (Sus scrofa, UniProt P08419+P00772) (assay: Compound is evaluated for the inhibition of porcine pancreatic (PP) elastase).
Format: protein

Compound	Ki [µM]
COC(=O)CCC(=O)N[C@@H](C)C(=O)N[C@@H](C)C(=O)N1CCC[C@H]1C(=O)CN(C(=O)Oc1ccccc1)C(C)C	31.5
COC(=O)CCC(=O)N[C@@H](C)C(=O)N[C@@H](C)C(=O)N1CCC[C@H]1C(=O)CN(C(=O)Sc1nnnn1C)C(C)C	19.5
COC(=O)CCC(=O)N[C@@H](C)C(=O)N[C@@H](C)C(=O)N1CCC[C@H]1C(=O)CN(C(=O)Oc1ccc([N+](=O)[O-])cc1)C(C)C	42.5
COC(=O)CCC(=O)N[C@@H](C)C(=O)N[C@@H](C)C(=O)N1CCC[C@H]1C(=O)CN(C(=O)OCC(F)(F)C(F)(F)C(F)(F)F)C(C)C	82.1
COC(=O)CCC(=O)N[C@@H](C)C(=O)N[C@@H](C)C(=O)N1CCC[C@H]1C(=O)CN(C(=O)Oc1c(F)c(F)c(F)c(F)c1F)C(C)C	35
COC(=O)CCC(=O)N[C@@H](C)C(=O)N[C@@H](C)C(=O)N1CCC[C@H]1C(=O)CN(C(=O)Sc1nnnn1-c1ccccc1)C(C)C	2.4
